Data as given in the supplement of paper PMC10307832.

Key:
Assay in all cases: relative viability (nuclei count vs DMSO), 5 days (fraction); higher = more cells survive
ChaGo-K-1 = test system: ChaGo-K-1
Outline: (§1)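 Relative viability divides the nuclei count in treated wells by that in vehicle wells. Lung cancer cell lines were seeded in 1536-well plates, dosed by pin tool the next day, and fixed and stained after 5 days in one step with final 0.05% Triton X-100, 1% formaldehyde and 1 ug/ml Hoechst. Dosing was a single drug or a fixed anchor-drug dose plus five library-drug doses (not always all listed) in √10 steps, and values are medians of duplicate plates imaged at 4×.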

NCI-H661 = test system: NCI-H661
Outline: as §1

NCI-H358 = test system: NCI-H358
Outline: as §1

NCI-H2342 = test system: NCI-H2342
Outline: as §1

LU99A = test system: LU99A
Outline: as §1

BEN = test system: BEN
Outline: as §1

NCI-H596 = test system: NCI-H596
Outline: as §1

LCLC-97TM1 = test system: LCLC-97TM1
Outline: as §1

NCI-H1651 = test system: NCI-H1651
Outline: as §1

NCI-H2087 = test system: NCI-H2087
Outline: as §1

LC-2-ad = test system: LC-2-ad
Outline: as §1

NCI-H1666 = test system: NCI-H1666
Outline: as §1

HCC-15 = test system: HCC-15
Outline: as §1

HCC-78 = test system: HCC-78
Outline: as §1

NCI-H1944 = test system: NCI-H1944
Outline: as §1

NCI-H650 = test system: NCI-H650
Outline: as §1

NCI-H322M = test system: NCI-H322M
Outline: as §1

PC-3 [JPC-3] = test system: PC-3 [JPC-3]
Outline: as §1

UMC-11 = test system: UMC-11
Outline: as §1

NCI-H838 = test system: NCI-H838
Outline: as §1

LXF-289 = test system: LXF-289
Outline: as §1

SK-MES-1 = test system: SK-MES-1
Outline: as §1

LK-2 = test system: LK-2
Outline: as §1

## CC1(C)CCC(c2ccc(Cl)cc2)=C(CN2CCN(c3ccc(C(=O)NS(=O)(=O)c4ccc(N[C@H](CCN5CCOCC5)CSc5ccccc5)c(S(=O)(=O)C(F)(F)F)c4)cc3)CC2)C1 [Navitoclax] + Nc1ncn([C@H]2C[C@H](O)[C@@H](CO)O2)c(=O)n1 [Decitabine] (partner 2 µM)
ChaGo-K-1; first compound 0.005 µM
  relative viability: 0.498
ChaGo-K-1; first compound 0.01581 µM
  relative viability: 0.549
ChaGo-K-1; first compound 0.05 µM
  relative viability: 0.392
ChaGo-K-1; first compound 0.1581 µM
  relative viability: 0.498
ChaGo-K-1; first compound 0.5 µM
  relative viability: 0.52
NCI-H661; first compound 0.005 µM
  relative viability: 0.556
NCI-H661; first compound 0.01581 µM
  relative viability: 0.595
NCI-H661; first compound 0.05 µM
  relative viability: 0.545
NCI-H661; first compound 0.1581 µM
  relative viability: 0.547
NCI-H661; first compound 0.5 µM
  relative viability: 0.567
NCI-H358; first compound 0.005 µM
  relative viability: 0.234
NCI-H358; first compound 0.01581 µM
  relative viability: 0.225
NCI-H358; first compound 0.05 µM
  relative viability: 0.206
NCI-H358; first compound 0.1581 µM
  relative viability: 0.213
NCI-H358; first compound 0.5 µM
  relative viability: 0.187
NCI-H2342; first compound 0.005 µM
  relative viability: 0.799
NCI-H2342; first compound 0.01581 µM
  relative viability: 0.764
NCI-H2342; first compound 0.05 µM
  relative viability: 0.653
NCI-H2342; first compound 0.1581 µM
  relative viability: 0.679
NCI-H2342; first compound 0.5 µM
  relative viability: 0.713
LU99A; first compound 0.005 µM
  relative viability: 0.876
LU99A; first compound 0.01581 µM
  relative viability: 0.977
LU99A; first compound 0.1581 µM
  relative viability: 0.921
LU99A; first compound 0.5 µM
  relative viability: 0.989
BEN; first compound 0.005 µM
  relative viability: 0.784
BEN; first compound 0.01581 µM
  relative viability: 0.803
BEN; first compound 0.05 µM
  relative viability: 0.734
BEN; first compound 0.1581 µM
  relative viability: 0.712
BEN; first compound 0.5 µM
  relative viability: 0.443
NCI-H596; first compound 0.005 µM
  relative viability: 1.04
NCI-H596; first compound 0.01581 µM
  relative viability: 0.951
NCI-H596; first compound 0.05 µM
  relative viability: 0.786
NCI-H596; first compound 0.1581 µM
  relative viability: 0.998
NCI-H596; first compound 0.5 µM
  relative viability: 1.01
LCLC-97TM1; first compound 0.005 µM
  relative viability: 0.229
LCLC-97TM1; first compound 0.01581 µM
  relative viability: 0.268
LCLC-97TM1; first compound 0.05 µM
  relative viability: 0.224
LCLC-97TM1; first compound 0.1581 µM
  relative viability: 0.217
LCLC-97TM1; first compound 0.5 µM
  relative viability: 0.271
NCI-H1651; first compound 0.005 µM
  relative viability: 0.797
NCI-H1651; first compound 0.01581 µM
  relative viability: 0.591
NCI-H1651; first compound 0.05 µM
  relative viability: 0.42
NCI-H1651; first compound 0.1581 µM
  relative viability: 0.628
NCI-H1651; first compound 0.5 µM
  relative viability: 0.644
NCI-H2087; first compound 0.005 µM
  relative viability: 0.277
NCI-H2087; first compound 0.01581 µM
  relative viability: 0.314
NCI-H2087; first compound 0.1581 µM
  relative viability: 0.231
NCI-H2087; first compound 0.5 µM
  relative viability: 0.266
LC-2-ad; first compound 0.005 µM
  relative viability: 0.793
LC-2-ad; first compound 0.01581 µM
  relative viability: 0.72
LC-2-ad; first compound 0.05 µM
  relative viability: 0.673
LC-2-ad; first compound 0.1581 µM
  relative viability: 0.701
LC-2-ad; first compound 0.5 µM
  relative viability: 0.774
NCI-H1666; first compound 0.005 µM
  relative viability: 0.781
NCI-H1666; first compound 0.01581 µM
  relative viability: 0.759
NCI-H1666; first compound 0.05 µM
  relative viability: 0.628
NCI-H1666; first compound 0.1581 µM
  relative viability: 0.692
NCI-H1666; first compound 0.5 µM
  relative viability: 0.765
HCC-15; first compound 0.005 µM
  relative viability: 0.64
HCC-15; first compound 0.01581 µM
  relative viability: 0.652
HCC-15; first compound 0.05 µM
  relative viability: 0.386
HCC-15; first compound 0.1581 µM
  relative viability: 0.625
HCC-15; first compound 0.5 µM
  relative viability: 0.411
HCC-78; first compound 0.005 µM
  relative viability: 0.759
HCC-78; first compound 0.01581 µM
  relative viability: 0.732
HCC-78; first compound 0.05 µM
  relative viability: 0.605
HCC-78; first compound 0.1581 µM
  relative viability: 0.636
HCC-78; first compound 0.5 µM
  relative viability: 0.798
NCI-H1944; first compound 0.005 µM
  relative viability: 0.466
NCI-H1944; first compound 0.01581 µM
  relative viability: 0.455
NCI-H1944; first compound 0.1581 µM
  relative viability: 0.384
NCI-H1944; first compound 0.5 µM
  relative viability: 0.396
NCI-H650; first compound 0.005 µM
  relative viability: 0.331
NCI-H650; first compound 0.01581 µM
  relative viability: 0.298
NCI-H650; first compound 0.05 µM
  relative viability: 0.32
NCI-H650; first compound 0.1581 µM
  relative viability: 0.336
NCI-H650; first compound 0.5 µM
  relative viability: 0.264
NCI-H322M; first compound 0.005 µM
  relative viability: 0.722
NCI-H322M; first compound 0.01581 µM
  relative viability: 0.863
NCI-H322M; first compound 0.05 µM
  relative viability: 0.703
NCI-H322M; first compound 0.1581 µM
  relative viability: 0.655
NCI-H322M; first compound 0.5 µM
  relative viability: 0.725
PC-3 [JPC-3]; first compound 0.005 µM
  relative viability: 0.922
PC-3 [JPC-3]; first compound 0.01581 µM
  relative viability: 0.876
PC-3 [JPC-3]; first compound 0.05 µM
  relative viability: 0.912
PC-3 [JPC-3]; first compound 0.1581 µM
  relative viability: 0.758
PC-3 [JPC-3]; first compound 0.5 µM
  relative viability: 0.653
UMC-11; first compound 0.005 µM
  relative viability: 0.707
UMC-11; first compound 0.01581 µM
  relative viability: 0.635
UMC-11; first compound 0.05 µM
  relative viability: 0.616
UMC-11; first compound 0.1581 µM
  relative viability: 0.547
UMC-11; first compound 0.5 µM
  relative viability: 0.609
NCI-H838; first compound 0.005 µM
  relative viability: 0.457
NCI-H838; first compound 0.01581 µM
  relative viability: 0.506
NCI-H838; first compound 0.05 µM
  relative viability: 0.47
NCI-H838; first compound 0.1581 µM
  relative viability: 0.423
NCI-H838; first compound 0.5 µM
  relative viability: 0.46
LXF-289; first compound 0.005 µM
  relative viability: 0.347
LXF-289; first compound 0.01581 µM
  relative viability: 0.389
LXF-289; first compound 0.05 µM
  relative viability: 0.349
LXF-289; first compound 0.1581 µM
  relative viability: 0.349
LXF-289; first compound 0.5 µM
  relative viability: 0.428
SK-MES-1; first compound 0.005 µM
  relative viability: 0.371
SK-MES-1; first compound 0.01581 µM
  relative viability: 0.432
SK-MES-1; first compound 0.05 µM
  relative viability: 0.349
SK-MES-1; first compound 0.1581 µM
  relative viability: 0.344
SK-MES-1; first compound 0.5 µM
  relative viability: 0.372
LK-2; first compound 0.005 µM
  relative viability: 0.295
LK-2; first compound 0.01581 µM
  relative viability: 0.279
LK-2; first compound 0.05 µM
  relative viability: 0.235
LK-2; first compound 0.1581 µM
  relative viability: 0.267
LK-2; first compound 0.5 µM
  relative viability: 0.4
